Laboratory results published in patent publication US8193191B2, “Urotensin II receptor antagonists” (Janssen Pharmaceutica N.V., priority 2006, dated 2012).
Where two headings read alike, the source gives them in different places.

How the values were obtained:
[1] = target: T1, Human UII receptor, 6D9 human rhabdomyosarcoma cells (Homo sapiens, UniProt Q9UKP6); test: Human UII Calcium Mobilization Assay; format: cell-based; details: average value, FLIPR TETRA, read-out: Human UII Ca^+ Mobilization Average IC50
T1 construct: 6D9: isolated by dilution subcloning of RMS13 cells, ATCC® Number: CRL-2061; host or cells: 6D9 human rhabdomyosarcoma cells (subclone of RMS13)
T1 sequence (Q9UKP6 1-389): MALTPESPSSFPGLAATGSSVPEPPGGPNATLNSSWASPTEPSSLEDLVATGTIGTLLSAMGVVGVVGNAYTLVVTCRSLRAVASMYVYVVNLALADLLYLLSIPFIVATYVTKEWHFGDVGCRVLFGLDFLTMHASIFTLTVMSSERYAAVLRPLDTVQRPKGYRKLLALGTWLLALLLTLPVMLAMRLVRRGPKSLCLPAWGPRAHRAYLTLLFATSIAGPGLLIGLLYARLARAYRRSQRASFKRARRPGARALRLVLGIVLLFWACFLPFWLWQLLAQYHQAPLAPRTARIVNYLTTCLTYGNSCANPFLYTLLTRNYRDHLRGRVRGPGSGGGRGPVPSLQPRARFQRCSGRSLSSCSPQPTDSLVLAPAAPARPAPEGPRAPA
Procedure, shortened: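 6D9 rhabdomyosarcoma cells loaded 45 min at 37° C with calcium dye (1.25 mM probenecid, 0.01% FBS, HBSS/20 mM HEPES). Antagonist and U-II agonist added at room temperature; FLIPR fluorescence read over 4 min; EC50/IC50 fitted. DMSO ≤0.1% final.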

[2] = target: T2, rat GPR14 (U-II receptor) (Rattus norvegicus, UniProt P49684); test: Rat UII Calcium Mobilization FLIPR Assay; format: cell-based; details: average value for the compound tested; read-out: Rat UII FLIPR Average IC50
T2 construct: expressed in transfected cells
T2 sequence (P49684 1-386): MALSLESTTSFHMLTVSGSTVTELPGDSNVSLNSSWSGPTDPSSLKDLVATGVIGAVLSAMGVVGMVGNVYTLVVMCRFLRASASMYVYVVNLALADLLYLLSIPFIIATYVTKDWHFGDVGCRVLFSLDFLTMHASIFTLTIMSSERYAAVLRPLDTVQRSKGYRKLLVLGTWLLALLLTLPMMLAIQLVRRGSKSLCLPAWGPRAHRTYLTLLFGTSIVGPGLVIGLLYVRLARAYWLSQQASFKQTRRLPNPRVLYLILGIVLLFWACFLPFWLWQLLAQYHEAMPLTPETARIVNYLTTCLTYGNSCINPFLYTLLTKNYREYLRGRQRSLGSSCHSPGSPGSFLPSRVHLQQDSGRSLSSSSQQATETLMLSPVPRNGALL
Procedure, shortened: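 CHO cells stably expressing rat U-II receptor, seeded 24 h before assay, were loaded with FLIPR calcium dye in HBSS/20 mM HEPES/0.1% BSA/2.5 mM probenecid, pH 7.4, for 1 h at 37° C. Calcium mobilization then read by FLIPR at 23° C.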

[3] = target: T3, endogenous human UII receptor (Homo sapiens, UniProt Q9UKP6); test: Human Radioligand Binding Assay ((^125I)-U-II binding to human skeletal muscle myoblasts)
T3 sequence (Q9UKP6 1-389): T1 sequence (Q9UKP6 1-389)

[4] = read-out: Human UII Average Binding Ki, average value, (^125I)-U-II binding to human skeletal muscle myoblasts (HSMM), 25° C., 3 h

Structure (SMILES)	IC50 [1] [nM]	IC50 [2] [nM]	Ki [3] [nM]	Ki [3, 4] [nM]
COc1ccc(CN2C(=O)c3ccc(N4CCN([C@H](C)c5ccccc5)CC4)cc3C2=O)cc1OC [Cpd 226, 2-(3,4-dimethoxy-benzyl)-5-[4-(1R)-(1-phenyl-ethyl)-piperazin-1-yl]-isoindole-1,3-dione]	> 10000	10000	> 300	–
COc1ccc([C@@H](CCCNC(=O)c2cc(C)on2)N2C(=O)c3cccc(N4CCN([C@H](C)c5ccccc5)CC4)c3C2=O)cc1OC [Cpd 159, (R)-5-methyl-isoxazole-3-carboxylic acid (4-(3,4-dimethoxy-phenyl)-4-{1,3-dioxo-4-[4-(1R)-(1-phenyl-ethyl)-piperazin-1-yl]-1,3-dihydro-isoindol-2-yl}-butyl)-amide]	750	34	150	–
CCN1CCN(c2cccc3c2C(=O)N([C@H](CCCO)c2ccc(OC)c(OC)c2)C3=O)CC1 [Cpd 206, (R)-2-[1-(3,4-dimethoxy-phenyl)-4-hydroxy-butyl]-4-(4-ethyl-piperazin-1-yl)-isoindole-1,3-dione]	680	690	66	–
COc1ccc([C@@H](CCCNS(=O)(=O)c2cccs2)N2C(=O)c3cccc(OCCN(C)C)c3C2=O)cc1OC [Cpd 229, (R)-thiophene-2-sulfonic acid {4-(3,4-dimethoxy-phenyl)-4-[4-(2-dimethylamino-ethoxy)-1,3-dioxo-1,3-dihydro-isoindol-2-yl]-butyl}-amide]	1700	> 100	320	–
CCN1CCN(c2cccc3c2C(=O)N(C(c2cccc(NS(=O)(=O)O)c2)c2ccc(OC)c(OC)c2)C3=O)CC1 (stereo not drawn) [Cpd 231, (3-{(3,4-dimethoxy-phenyl)-[4-(4-ethyl-piperazin-1-yl)-1,3-dioxo-1,3-dihydro-isoindol-2-yl]-methyl}-phenyl)-sulfamic acid]	3400	680	511	–
COc1ccc([C@@H](CCCNS(=O)(=O)c2cnoc2C)N2C(=O)c3cccc(N4CCN([C@H](C)c5ccccc5)CC4)c3C2=O)cc1OC [Cpd 138, (R)-5-methyl-isoxazole-4-sulfonic acid (4-(3,4-dimethoxy-phenyl)-4-{1,3-dioxo-4-[4-(1R)-(1-phenyl-ethyl)-piperazin-1-yl]-1,3-dihydro-isoindol-2-yl}-butyl)-amide]	130	20	–	32
CCN1CCN(c2cccc3c2C(=O)N([C@H](CCCOCC(C)C)c2ccc(OC)c(OC)c2)C3=O)CC1 [Cpd 210, (R)-2-[1-(3,4-dimethoxy-phenyl)-4-isobutoxy-butyl]-4-(4-ethyl-piperazin-1-yl)-isoindole-1,3-dione]	> 10000	6200	> 300	–
COc1ccc([C@@H](CCCNS(=O)(=O)c2c(C)n[nH]c2C)N2C(=O)c3cccc(N4CCN([C@H](C)c5ccccc5)CC4)c3C2=O)cc1OC [Cpd 125, (R)-3,5-dimethyl-1H-pyrazole-4-sulfonic acid (4-(3,4-dimethoxy-phenyl)-4-{1,3-dioxo-4-[4-(1R)-(1-phenyl-ethyl)-piperazin-1-yl]-1,3-dihydro-isoindol-2-yl}-butyl)-amide]	47	11	–	13
CCN1CCN(c2cccc3c2C(=O)N(C(CC2CCN(Cc4ccccc4)CC2)c2ccc(OC)c(OC)c2)C3=O)CC1 (stereo not drawn) [Cpd 232, 2-[2-(1-benzyl-piperidin-4-yl)-1-(3,4-dimethoxy-phenyl)-ethyl]-4-(4-ethyl-piperazin-1-yl)-isoindole-1,3-dione]	4100	410	> 300	–
CCN1CCN(c2cccc3c2C(=O)N([C@H](CCCOCc2cccs2)c2ccc(OC)c(OC)c2)C3=O)CC1 [Cpd 214, (R)-2-[1-(3,4-dimethoxy-phenyl)-4-(thiophen-2-ylmethoxy)-butyl]-4-(4-ethyl-piperazin-1-yl)-isoindole-1,3-dione]	> 10000	9500	> 300	–
COc1cc(Br)c(CN2C(=O)c3cccc(N4CCN([C@H](C)c5ccccc5)CC4)c3C2=O)cc1OC [Cpd 225, 2-(2-bromo-4,5-dimethoxy-benzyl)-4-[4-(1R)-(1-phenyl-ethyl)-piperazin-1-yl]-isoindole-1,3-dione]	> 10000	1500	> 300	–

Second part, led by results:

IC50 [1] [nM]	IC50 [2] [nM]	Ki [3] [nM]	Structure (SMILES)	Ki [3, 4] [nM]
700	58	32	COc1ccc(C(CCCNS(=O)(=O)Cc2ccccc2)N2C(=O)c3cccc(N4CCN([C@H](C)c5ccccc5)CC4)c3C2=O)cc1OC (stereo partly drawn) [Cpd 117, N-(4-(3,4-dimethoxy-phenyl)-4-{1,3-dioxo-4-[4-(1R)-(1-phenyl-ethyl)-piperazin-1-yl]-1,3-dihydro-isoindol-2-yl}-butyl)-C-phenyl-methanesulfonamide]	–
400	12	140	COc1ccc([C@@H](CCCNC(=O)c2ccnnc2)N2C(=O)c3cccc(N4CCN([C@H](C)c5ccccc5)CC4)c3C2=O)cc1OC [Cpd 160, (R)-pyridazine-4-carboxylic acid (4-(3,4-dimethoxy-phenyl)-4-{1,3-dioxo-4-[4-(1R)-(1-phenyl-ethyl)-piperazin-1-yl]-1,3-dihydro-isoindol-2-yl}-butyl)-amide]	–
1100	7.1	93	COCCC(=O)NCCC[C@H](c1ccc(OC)c(OC)c1)N1C(=O)c2cccc(N3CCN([C@H](C)c4ccccc4)CC3)c2C1=O [Cpd 177, (R)-N-(4-(3,4-dimethoxy-phenyl)-4-{1,3-dioxo-4-[4-(1R)-(1-phenyl-ethyl)-piperazin-1-yl]-1,3-dihydro-isoindol-2-yl}-butyl)-3-methoxy-propionamide]	–
660	17	69	COc1ccc([C@@H](CCCNC(=O)c2cncn2C)N2C(=O)c3cccc(N4CCN([C@H](C)c5ccccc5)CC4)c3C2=O)cc1OC [Cpd 152, (R)-3-methyl-3H-imidazole-4-carboxylic acid (4-(3,4-dimethoxy-phenyl)-4-{1,3-dioxo-4-[4-(1R)-(1-phenyl-ethyl)-piperazin-1-yl]-1,3-dihydro-isoindol-2-yl}-butyl)-amide]	–
780	49	25	COc1ccc([C@@H](CCCN(C)S(=O)(=O)O)N2C(=O)c3cccc(N4CCN([C@H](C)c5ccccc5)CC4)c3C2=O)cc1OC [Cpd 228, (R)-(4-(3,4-dimethoxy-phenyl)-4-{1,3-dioxo-4-[4-(1R)-(1-phenyl-ethyl)-piperazin-1-yl]-1,3-dihydro-isoindol-2-yl}-butyl)-methyl-sulfamic acid]	–
430	65	42	COC(=O)c1sccc1S(=O)(=O)NCCCC(c1ccc(OC)c(OC)c1)N1C(=O)c2cccc(N3CCN([C@H](C)c4ccccc4)CC3)c2C1=O (stereo partly drawn) [Cpd 94, 3-(4-(3,4-dimethoxy-phenyl)-4-{1,3-dioxo-4-[4-(1R)-(1-phenyl-ethyl)-piperazin-1-yl]-1,3-dihydro-isoindol-2-yl}-butylsulfamoyl)-thiophene-2-carboxylic acid methyl ester]	–
850	13	24	CCCC(=O)NCCC[C@H](c1ccc(OC)c(OC)c1)N1C(=O)c2cccc(N3CCN([C@H](C)c4ccccc4)CC3)c2C1=O [Cpd 176, (R)-N-(4-(3,4-dimethoxy-phenyl)-4-{1,3-dioxo-4-[4-(1R)-(1-phenyl-ethyl)-piperazin-1-yl]-1,3-dihydro-isoindol-2-yl}-butyl)-butyramide]	–
790	19	26	COc1ccc([C@@H](CCCNC(=O)C(F)(F)F)N2C(=O)c3cccc(N4CCN([C@H](C)c5ccccc5)CC4)c3C2=O)cc1OC [Cpd 212, (R)-N-(4-(3,4-dimethoxy-phenyl)-4-{1,3-dioxo-4-[4-(1R)-(1-phenyl-ethyl)-piperazin-1-yl]-1,3-dihydro-isoindol-2-yl}-butyl)-2,2,2-trifluoro-acetamide]	–
